Experimental data taken from patent US20260337212A1, “IP4-4,6 SUBSTITUTED DERIVATIVE COMPOUNDS FOR USE IN THE TREATMENT, INHIBITION OF PROGRESSION, AND PREVENTION OF ECTOPIC CALCIFICATION” (SANIFIT THERAPEUTICS, S.A., priority 2022, published 2026).
Structures can show the parent of a compound that is named as a salt.

Experiment: In vitro inhibition of calcium phosphate crystallization in human plasma (spectrophotometric)
Format: biochemical
Settings: 0-100 μM, 1.5 mM phosphate, 12.5 mM calcium, pH 7.4, 30 min, rt, read-out: Relative Potency (EC50, inhibition of calcium phosphate crystallization)
Method: The in vitro efficacy of the IP4-4,6 substituted derivatives (e.g., Compounds 1 to 53) of the invention on the inhibition of calcium phosphate crystallization in human plasma samples was evaluated according to a spectrophotometric assay previously described in the art (Ferrer M, et al., Sci Rep 2017; 7:6858, doi:10.1038/s41598-017-07203-x).
A 96-well plate was employed. Plasma was spiked (1 volume of the IP4-4,6 substituted derivatives of the invention per 19 volumes of plasma) with increasing concentrations of the derivatives in the range of 0-100 μM. Plasma was then centrifuged at 10,000 g at rt and subsequently mixed with a mixture of 5 mM hydrogen phosphate and 41.67 mM calcium to attain final concentrations of 1.5 mM phosphate and 12.5 mM calcium, respectively. All reagent solutions were filtered, and pH adjusted to 7.4.
Crystallization of calcium phosphate was monitored spectrophotometrically for 30 min at rt by measuring the increments in absorbance at 550 nm using the Biotek Powerwave XS Microplate spectrophotometer (BioTek Instruments, Inc., Winooski, VT, US). The plate was incubated at rt in an orbital shaker and absorbance measured every 3 min.
Plasma crystallization was assessed based on slope measurement in the linear range between 6 and 24 min from plots of increase in absorbance versus logarithm of time. The efficacy of different myo-inositol phosphates derivatives in preventing in vitro formation of calcium phosphate crystals was assessed in human plasma samples using the slopes obtained between 6- and 24-min. Inhibition of crystallization was measured by comparing the slopes of the control sample (blank plasma) with those of samples containing the inhibitor as shown below: […]

Molecule: 4,6-O-(6-(4-carboxy-1H-1,2,3-triazol-1-yl) hexyl)-myo-inositol-1,2,3,5-tetrakis(phosphate) decasodium salt [Compound 40]
- EC50: ≤ 5 µM

Molecule: 4,6-O-bis(2-(4-acetylpiperazin-1-yl)ethyl)-myo-inositol-1,2,3,5-tetrakis(phosphate) octasodium salt [Compound 34]
- EC50: 5 to 10 µM

Molecule: 4,6-O-bis(3-(3-phenylureido)propyl)-myo-inositol-1,2,3,5-tetrakis(phosphate) octasodium salt [Compound 46]
- EC50: 5 to 10 µM

Molecule: 4,6-O-bis(3-(4-(2-carboxyethyl)-1H-1,2,3-triazol-1-yl)propyl)-myo-inositol-1,2,3,5-tetrakis(phosphate) decasodium salt [Compound 35]
- EC50: ≤ 5 µM

Molecule: 4,6-O-bis(3-(4-(methoxymethyl)-1H-1,2,3-triazol-1-yl)propyl)-myo-inositol-1,2,3,5-tetrakis(phosphate) octasodium salt [Compound 36]
- EC50: 5 to 10 µM

Molecule: 4,6-O-bis(3-((methoxycarbonyl)amino)propyl)-myo-inositol-1,2,3,5-tetrakis(phosphate) octasodium salt [Compound 24]
- EC50: > 10 µM

Molecule: 4,6-O-bis(3-methoxypropyl)-myo-inositol-1,2,3,5-tetrakis(phosphate) octasodium salt [Compound 10]
- EC50: ≤ 5 µM

Molecule: 4,6-O-bis(4-amino-4-oxobutyl)-myo-inositol-1,2,3,5-tetrakis(phosphate) octasodium salt [Compound 26]
- EC50: ≤ 5 µM

Molecule: 4,6-O-bis(4-methylpentyl)-myo-inositol-1,2,3,5-tetrakis(phosphate) octasodium salt [Compound 21]
- EC50: > 10 µM

Molecule: 4,6-O-bis(5-(4-(methoxymethyl)-1H-1,2,3-triazol-1-yl) pentyl)-myo-inositol-1,2,3,5-tetrakis(phosphate) octasodium salt [Compound 38]
- EC50: ≤ 5 µM

Molecule: 4,6-O-bis(5-carboxypentyl)-myo-inositol-1,2,3,5-tetrakis(phosphate) decasodium salt [Compound 18]
- EC50: ≤ 5 µM

Molecule: 4,6-O-bis(5-methoxypentyl)-myo-inositol-1,2,3,5-tetrakis(phosphate) octasodium salt [Compound 9]
- EC50: ≤ 5 µM

Molecule: 4,6-O-bis(6,6,6-trifluorohexyl)-myo-inositol-1,2,3,5-tetrakis(phosphate) octasodium salt [Compound 23]
- EC50: > 10 µM

Molecule: 4,6-O-bis(6-(4-(methoxymethyl)-1H-1,2,3-triazol-1-yl) hexyl)-myo-inositol-1,2,3,5-tetrakis(phosphate) octasodium salt [Compound 39]
- EC50: ≤ 5 µM

Molecule: 4,6-O-bis(10-carboxydecyl)-myo-inositol-1,2,3,5-tetrakis(phosphate) decasodium salt [Compound 19]
- EC50: > 10 µM

Molecule: 4,6-O-bis(19-methoxynonadec-10-yn-1-yl)-myo-inositol-1,2,3,5-tetrakis(phosphate) octasodium salt [Compound 20]
- EC50: ≤ 5 µM

Molecule: 4,6-O-bis((1-(3-methoxypropyl)-1H-1,2,3-triazol-4-yl)methyl)-myo-inositol-1,2,3,5-tetrakis(phosphate) octasodium salt [Compound 32]
- EC50: ≤ 5 µM

Molecule: 4,6-O-bis((3-(4-carboxybutanamido)propyl))-myo-inositol-1,2,3,5-tetrakis(phosphate) decasodium salt [Compound 45]
- EC50: ≤ 5 µM

Molecule: 4,6-O-diheptyl-myo-inositol-1,2,3,5-tetrakis(phosphate) octasodium salt [Compound 5]
- EC50: ≤ 5 µM

Molecule: 4,6-O-dipropyl-myo-inositol-1,2,3,5-tetrakis(phosphate) octasodium salt [Compound 4]
- EC50: ≤ 5 µM

Molecule: CCCCCCCCCCOC1C(OP(=O)(O)O)C(OCCCCCCCCCC)C(OP(=O)(O)O)C(OP(=O)(O)O)C1OP(=O)(O)O (centres unmarked) [Compound 2, 4,6-O-didecyl-myo-inositol-1,2,3,5-tetrakis(phosphate) octasodium salt]
- EC50: > 10 µM

Molecule: O=P(O)(O)OC1C(OCCCCCCCCCCO)C(OP(=O)(O)O)C(OP(=O)(O)O)C(OP(=O)(O)O)C1OCCCCCCCCCCO (centres unmarked) [Compound 7, 4,6-O-bis(10-hydroxydecyl)-myo-inositol-1,2,3,5-tetrakis(phosphate) octasodium salt]
- EC50: > 10 µM

Molecule: COCCCCCCCOC1C(OP(=O)(O)O)C(OCCCCCCCOC)C(OP(=O)(O)O)C(OP(=O)(O)O)C1OP(=O)(O)O (centres unmarked) [Compound 11, 4,6-O-bis(7-methoxyheptyl)-myo-inositol-1,2,3,5-tetrakis(phosphate) octasodium salt]
- EC50: > 10 µM

Molecule: COCCCCCCCCCOC1C(OP(=O)(O)O)C(OCCCCCCCCCOC)C(OP(=O)(O)O)C(OP(=O)(O)O)C1OP(=O)(O)O (centres unmarked) [Compound 12, 4,6-O-bis(9-methoxynonyl)-myo-inositol-1,2,3,5-tetrakis(phosphate) octasodium salt]
- EC50: > 10 µM

Molecule: NCCCOC1C(OP(=O)(O)O)C(OCCCN)C(OP(=O)(O)O)C(OP(=O)(O)O)C1OP(=O)(O)O (centres unmarked) [Compound 13, 4,6-O-bis(3-aminopropyl)-myo-inositol-1,2,3,5-tetrakis(phosphate) octasodium salt]
- EC50: 5 to 10 µM

Molecule: NCCCCCO[C@@H]1[C@@H](OP(=O)(O)O)[C@H](OCCCCCN)[C@@H](OP(=O)(O)O)[C@@H](OP(=O)(O)O)[C@H]1OP(=O)(O)O [Compound 14, 4,6-O-bis(5-aminopentyl)-myo-inositol-1,2,3,5-tetrakis(phosphate) octasodium salt]
- EC50: ≤ 5 µM

Molecule: NCCCCCCCCCCO[C@@H]1[C@@H](OP(=O)(O)O)[C@H](OCCCCCCCCCCN)[C@@H](OP(=O)(O)O)[C@@H](OP(=O)(O)O)[C@H]1OP(=O)(O)O [Compound 15, 4,6-O-bis(10-aminodecyl)-myo-inositol-1,2,3,5-tetrakis(phosphate) octasodium salt]
- EC50: > 10 µM

Molecule: O=P(O)(O)OC1C(OCCCCCn2cccn2)C(OP(=O)(O)O)C(OP(=O)(O)O)C(OP(=O)(O)O)C1OCCCCCn1cccn1 (centres unmarked) [Compound 16, 4,6-O-bis(5-(1H-pyrazol-1-yl)pentyl)-myo-inositol-1,2,3,5-tetrakis(phosphate) octasodium salt]
- EC50: ≤ 5 µM

Molecule: O=P(O)(O)OC1C(OCCCCCn2cncn2)C(OP(=O)(O)O)C(OP(=O)(O)O)C(OP(=O)(O)O)C1OCCCCCn1cncn1 (centres unmarked) [Compound 17, 4,6-O-bis(5-(1H-1,2,4-triazol-1-yl)pentyl)-myo-inositol-1,2,3,5-tetrakis(phosphate) octasodium salt]
- EC50: > 10 µM

Molecule: O=P(O)(O)O[C@@H]1[C@@H](OCCCC(F)(F)F)[C@H](OP(=O)(O)O)[C@H](OP(=O)(O)O)[C@H](OP(=O)(O)O)[C@H]1OCCCC(F)(F)F [Compound 22, 4,6-O-bis(4,4,4-trifluorobutyl)-myo-inositol-1,2,3,5-tetrakis(phosphate) octasodium salt]
- EC50: ≤ 5 µM

Molecule: COC(=O)NCCCCCOC1C(OP(=O)(O)O)C(OCCCCCNC(=O)OC)C(OP(=O)(O)O)C(OP(=O)(O)O)C1OP(=O)(O)O (centres unmarked) [Compound 25, 4,6-O-bis(5-((methoxycarbonyl)amino)pentyl)-myo-inositol-1,2,3,5-tetrakis(phosphate) octasodium salt]
- EC50: ≤ 5 µM

Molecule: O=P(O)(O)OC1C(OCCC2CC2)C(OP(=O)(O)O)C(OP(=O)(O)O)C(OP(=O)(O)O)C1OCCC1CC1 (centres unmarked) [Compound 28, 4,6-O-bis(2-cyclopropylethyl)-myo-inositol-1,2,3,5-tetrakis(phosphate) octasodium salt]
- EC50: ≤ 5 µM
